Reference: patent publication US20220274947A1, “NOVEL HETEROARYL-TRIAZOLE COMPOUNDS AS PESTICIDES” (Bayer Aktiengesellschaft, priority 2019, published 2022)

What was measured:
Format in all cases: in vivo
Rhipicephalus microplus [1] = assay: Rhipicephalus (Boophilus) microplus in-vitro contact test, larval cattle tick, strain Parkhurst (BOOPMI Cont); settings: application rate 5 μg/cm^2 (=500 g/ha), tick larvae, after 48 hours, read-out: activity (efficacy: 100% means all larvae are dead or moribund)
Method: Rhipicephalus (Boophilus) Microplus—In-Vitro Contact Tests Larval Cattle Tick (Strain Parkhurst, Resistant Against Synthetic Pyrethroids) (BOOPMI Cont)
9 mg compound is solved in 1 mL acetone and diluted with acetone to the desired concentration. 250 μL of the test solution is filled in 25 mL glass test tubes and homogeneously distributed on the inner walls by rotation and tilting on a shaking device (2 h at 30 rpm). With a compound concentration of 900 ppm, an inner surface of 44.7 cm^2 and a homogeneous distribution, a dose of 5 μg/cm^2 is achieved.
After the solvent has evaporated, each test tube is filled with 20-50 cattle tick larvae (Rhipicephalus microplus), closed with a perforated lid and incubated in a horizontal position at 85% relative humidity and 27° C. in an incubator. After 48 hours efficacy is determined. The larvae are patted on the ground of the tubes and negative geotactic behavior is recorded.
An efficacy of 100% means all larvae are dead or moribund; 0% means no larvae are dead or moribund.

Spodoptera frugiperda = Spodoptera frugiperda spray test; settings: in Zea mays, 168 h, read-out: activity (mortality)
Method: Spodoptera Fruaiperda—Spray Test
Solvent: 78.0 parts by weight acetone • 1.5 parts by weight dimethylformamide Emulsifier: alkylarylpolyglycol ether
To produce a suitable preparation of active compound, 1 part by weight of active compound is mixed with the stated amount of solvents and is diluted with water, containing an emulsifier concentration of 1000 ppm, to the desired concentration. Further test concentrations are prepared by dilution with emulsifier containing water.
Maize (Zea mays) leaf sections are sprayed with a preparation of the active ingredient of the desired concentration. Once dry, the leaf sections are infested with fall armyworm larvae (Spodoptera frugiperda).
After 7 days mortality in % is determined. 100% means all caterpillars have been killed and 0% means none of the caterpillars have been killed.

Rhipicephalus microplus [2] = assay: Rhipicephalus (Boophilus) microplus injection test (BOOPMI Inj); settings: 168 h, injection into adult engorged female ticks, egg deposition after 7 days, read-out: activity (efficacy: 100% means all eggs are infertile); for pest or weed control at 0.004 mg: application rate 4 μg/tick; for pest or weed control at 0.02 mg: application rate 20 μg/tick
Method: Rhipicephalus (Boophilus) Microplus—Injection Test (BOOPMI Inj)
Solvent: dimethyl sulfoxide
To produce a suitable preparation of active compound, 10 mg of active compound are dissolved in 0.5 mL solvent, and the concentrate is diluted with solvent to the desired concentration.
Five adult engorged female ticks (Rhipicephalus microplus) are injected with 1 μL compound solution into the abdomen. The ticks are transferred into replica plates and incubated in a climate chamber.
After 7 days egg deposition of fertile eggs is monitored. Eggs where fertility is not visible are stored in a climate chamber till hatching after about 42 days. An efficacy of 100% means all eggs are infertile; 0% means all eggs are fertile.

Rhipicephalus sanguineus = Rhipicephalus sanguineus in-vitro contact test, adult brown dog ticks (RHIPSA Cont); settings: 48 h, after 48 hours, read-out: activity (efficacy: 100% means all ticks are dead or moribund); for pest or weed control at 5 µg/cm2, 500 g/ha: application rate 5 μg/cm^2 (=500 g/ha); for pest or weed control at 1 µg/cm2, 100 g/ha: application rate 1 μg/cm^2 (=100 g/ha)
Method: Rhipicephalus sanguineus-In-Vitro Contact Tests with Adult Brown Dog Ticks ([…] Cont) 9 mg compound is solved in 1 mL acetone and diluted with acetone to the desired concentration. 250 μL of the test solution is filled in 25 mL glass test tubes and homogeneously distributed on the inner walls by rotation and tilting on a shaking device (2 h at 30 rpm). […] After 48 hours efficacy is determined. The ticks are patted on the ground of the tubes and are incubated on a heating plate at 45-50° C. for at most 5 minutes. Immotile or uncoordinated moving ticks, which are not able to escape the heat by climbing upwards, are marked as dead or moribund.

Diabrotica balteata = Diabrotica balteata spray test; settings: 168 h, wheat seeds, larvae, after 7 days, read-out: activity (efficacy: 100% means all seedlings have grown up like in the untreated, uninfected control); for pest or weed control at 32 µg/disc, 100 g/ha: application rate 100 g/ha (=32 μg/well); for pest or weed control at 160 µg/disc, 500 g/ha: application rate 500 g/ha (=160 μg/well)
Method: Diabrotica balteata—Spray Test Solvent: 78.0 parts by weight of acetone • • 1.5 parts by weight of dimethylformamide Emulsifier: alkylarylpolyglycol ether
To produce a suitable preparation of active compound, 1 part by weight of active compound is mixed with the stated amount of solvent, and the concentrate is diluted with water, containing an emulsifier concentration of 1000 ppm, to the desired concentration. Further test concentrations are prepared by dilution with emulsifier containing water.
Soaked wheat seeds (Triticum aestivum) are placed in a multiple well plate filled with agar and some water and are incubated for 1 day to germinate (5 seeds per well). The germinated wheat seeds are sprayed with a test solution containing the desired concentration of the active ingredient. Afterwards each unit is infected with 10-20 larvae of the banded cucumber beetle (Diabrotica balteata).
After 7 days efficacy in % is determined. 100% means all the seedlings have grown up like in the untreated, uninfected control; 0% means none of the seedlings have grown.

[3] = test system: Musca domestica strain WHO—N; assay: Musca domestica test (MUSCDO surface treatment & contact assay); settings: surface concentration 4 mg/m^2, glazed tile, exposure 30 minutes, 24 hours after contact, read-out: efficacy (mortality)
Method: Musca domestica Test (MUSCDO Surface Treatment & Contact Assay) Solvent: Aceton+2000 ppm rapeseed oil methyl ester (RME)
In order to produce a sufficient, active ingredient containing solution it is necessary to solve the test compound in the solvent-mix (acetone at 2 mg/ml/RME 2000 ppm). This solution is pipetted onto a glazed tile and after evaporation of the acetone, adult flies of the species Musca domestica strain WHO—N are placed onto the dried surface. The exposure time is 30 minutes. Mortality in percent (%) is determined 24 hours after contact of the insects to the treated surface. 100% mortality means that all tested insects are dead, whereas 0% means that no insect died.

Myzus persicae = Myzus persicae oral test; settings: 120 h, read-out: activity (mortality)
Method: Myzus persicae—Oral Test Solvent: 100 parts by weight acetone
To produce a suitable preparation of active compound, 1 part by weight of active compound is mixed with the stated amount of solvent, and the concentrate is diluted with water to the desired concentration.
50 μL compound solution is filled in microtiter plates and 150 μL IPL41 insect medium (33%+15% sugar) is added to obtain a total volume of 200 μL per well. Afterwards the plates are sealed with parafilm through which a mixed population of the green peach aphid (Myzus persicae) can suck on the compound preparation.
After 5 days mortality in % is determined. 100% means all aphids have been killed and 0% means none of the aphids have been killed.

Ctenocephalides felis = Ctenocephalides felis oral test (CTECFE Oral); settings: 48 h, read-out: activity (mortality)
Method: Ctenocephalides felis—Oral Test (CTECFE Oral) Solvent: dimethyl sulfoxide
To produce a suitable preparation of active compound, 10 mg of active compound are dissolved in 0.5 mL solvent, and the concentrate is diluted with cattle blood to the desired concentration.
Approximately 20 adult unfed cat fleas (Ctenocephalides felis) are placed in flea chambers. The blood chamber, sealed with parafilm on the bottom, are filled with cattle blood supplied with compound solution and placed on the gauze covered top of the flea chamber, so that the fleas are able to suck the blood. The blood chamber is heated to 37° C. whereas the flea chamber is kept at room temperature.
After 2 days mortality in % is determined. 100% means all the fleas have been killed; 0% means none of the fleas have been killed.

[4] = test system: Aedes aegypti strain MONHEIM; assay: Aedes aegypti test (AEDSAE surface treatment & contact assay); settings: exposure 30 minutes, 24 hours after contact, read-out: efficacy (mortality); for mortality at 20 mg/m2: surface concentration 20 mg/m^2, glazed tile
Method: Aedes aegypti Test (AEDSAE Surface Treatment & Contact Assay) Solvent: Aceton+2000 ppm rapeseed oil methyl ester (RME)
In order to produce a sufficient, active ingredient containing solution it is necessary to solve the test compound in the solvent-mix (acetone at 2 mg/ml/RME 2000 ppm). This solution is pipetted onto a glazed tile and after evaporation of the acetone, adult mosquitoes of the species Aedes aegypti strain MONHEIM are placed onto the dried surface. The exposure time is 30 minutes. Mortality in percent (%) is determined 24 hours after contact of the insects to the treated surface. 100% mortality means that all tested insects are dead, whereas 0% means that no insect died.

SMILES | pest or weed control at 5 µg/cm2 (Rhipicephalus microplus [1]) | mortality at 100 g/ha (Spodoptera frugiperda) | pest or weed control at 0.004 mg (Rhipicephalus microplus [2]) | pest or weed control at 0.02 mg (Rhipicephalus microplus [2]) | pest or weed control at 5 µg/cm2, 500 g/ha (Rhipicephalus sanguineus) | pest or weed control at 32 µg/disc, 100 g/ha (Diabrotica balteata) | mortality at 4 ppm (Myzus persicae) | pest or weed control at 1 µg/cm2, 100 g/ha (Rhipicephalus sanguineus) | other results
CC(NC(=O)c1cc(Br)cc(C(F)(F)F)c1)c1nc(Cl)nn1-c1ccc(C#N)cn1 (stereo not drawn) [I-40] | 100% | 100% | 100% | 100% | 100% | 100% | – | – | –
C[C@H](NC(=O)c1cc(Cl)cc(OC(F)(F)F)c1)c1nc(C2CC2)nn1-c1ccc(C#N)cn1 [I-33] | 100% | – | 100% | 100% | – | 100% | – | – | mortality at 4 mg/m2 [3]: 80 to 100%
C[C@H](NC(=O)c1cc(C(F)(F)F)cc(C(F)(F)F)c1)c1ncnn1-c1cc(C(=O)NCC#N)ccn1 [II-89] | 80% | – | 80% | – | – | 100% | 100% | – | mortality at 0.8 ppm (Myzus persicae): 100%
COc1nc([C@H](C)NC(=O)c2cc(OC(F)(F)F)cc(C(F)F)c2)n(-c2ccc(C#N)cn2)n1 [I-63] | 100% | 100% | – | – | – | 100% | 100% | – | –
Cc1nc([C@H](C)NC(=O)c2cccc(Br)n2)n(-c2ccc(C#N)cn2)n1 [II-59] | – | – | 100% | 100% | 80% | – | – | 80% | mortality at 100 ppm (Ctenocephalides felis): 90%
Cc1nc([C@H](C)NC(=O)c2cccc(Cl)n2)n(-c2ccc(C#N)cn2)n1 [II-51] | 90% | – | 100% | 100% | 100% | – | – | 100% | –
C[C@H](NC(=O)c1cc(C(F)(F)F)cc(C(F)(F)F)c1)c1ncnn1-c1cc(C(=O)NCC(F)(F)F)ccn1 [II-87] | 80% | 100% | – | – | – | 100% | 100% | – | –
C[C@H](NC(=O)c1cc(Cl)cc(C(F)(F)C(F)(F)F)c1)c1ncnn1-c1ncc(Cl)s1 [II-68] | 100% | – | 80% | 100% | 100% | 100% | – | – | mortality at 500 g/ha (Spodoptera frugiperda): 83%; pest or weed control at 160 µg/disc, 500 g/ha (Diabrotica balteata): 100%
CC(C)Oc1cc(Br)cc(C(=O)N[C@@H](C)c2ncnn2-c2ccc(C#N)cn2)c1 [II-108] | 90% | 100% | 80% | – | – | 100% | – | 80% | –
C[C@H](NC(=O)c1cc(Cl)cc(C(F)F)c1)c1ncnn1-c1ccc(C#N)cn1 [II- 12] | – | – | – | – | – | – | – | – | mortality at 20 mg/m2 [4]: 80 to 100%
Cc1nc([C@H](C)NC(=O)c2cc(Cl)cc(OC(F)(F)F)c2)n(-c2cc(C#N)ccn2)n1 [II-34] | 100% | 100% | 100% | 100% | 100% | 100% | – | 100% | mortality at 500 g/ha (Spodoptera frugiperda): 100%; mortality at 4 mg/m2 ([4]; surface concentration 4 mg/m^2, glazed tile): 80 to 100%; mortality at 20 mg/m2 [4]: 80 to 100%; pest or weed control at 160 µg/disc, 500 g/ha (Diabrotica balteata): 100%
C[C@H](NC(=O)c1cc(Cl)cc(OC(F)(F)F)c1)c1ncnn1-c1cc(NC(=O)c2ccc(F)cc2)ccn1 [II-20] | – | – | 100% | 100% | – | – | – | – | mortality at 100 ppm (Ctenocephalides felis): 100%
CC(NC(=O)c1cncc(C(F)(F)F)c1)c1nc(Br)nn1-c1ccc(C#N)cn1 (stereo not drawn) [I-50] | 100% | – | – | – | – | – | 100% | – | –
